Data: patent US20260240761A1, “ORAL FILM UNIT DOSAGE FORM” (SWIPP AB, priority 2023, published 2026)
Counter-ions that a name gives are not always drawn.

Legend:
[1] = Solvent screening: solubility of midazolam hydrochloride in process solvents; format: physicochemical
Method: For each solvent, four test tubes were prepared, containing about 1 g solvent and midazolam hydrochloride at amounts of about 0.1 wt %, 1 wt %, 4 wt % and 7 wt %, respectively. The tubes were thoroughly mixed and were then visually observed and photographed. After 15 minutes of resting, they were again visually observed and photographed, and were then mixed again. After another 1 hour, they were finally visually observed and photographed. It was noted whether there were any undissolved solid material remaining, approximately how much, and whether it had sedimented at the bottom or formed a whitish suspension, and if that suspension was translucent or opaque. No analytical method, e.g., HPLC Assay, was used to actually quantify the precise solubilities because the main aim was just to determine whether the midazolam hydrochloride was predominately dissolved or solid, at 4 wt % and 7 wt % respectively, which represent typical levels for the midazolam hydrochloride content in a wet mix. If midazolam hydrochloride was predominately […] at 7 wt %, the solvent was deemed to be potentially very feasible.

[2] = XRPD of sedimented material from the solvent screening; format: physicochemical; conditions: solvent evaporated at ambient temperature
Method: Test tubes prepared with ethanol and ethyl acetate, respectively, corresponding to the last step in Example 14, were prepared and allowed to sediment overnight. The solvents in each sample of sedimented material were slowly evaporated off at ambient temperature and atmospheric pressure. It was then subjected to the XRPD method described in Example 12 except that only steps 1-2 of that method were performed, and that the reference “API raw material” recorded in step 1 was midazolam hydrochloride and not midazolam base.

Q: With `Cc1ncc2n1-c1ccc(Cl)cc1C(c1ccccc1F)=NC2` [midazolam hydrochloride] as the compound, how does the “Visual appearance at last observation” value ([1]; 1-pentanol, 0.1 wt %) read?
A: clear

Q: What about the “Visual appearance at last observation” value ([1]; 1-pentanol, 1 wt %) of the same compound?
A: translucent

Q: And the “Visual appearance at last observation” value ([1]; 1-pentanol, 4 wt %)?
A: opaque

Q: What about the “Visual appearance at last observation” value ([1]; 1-pentanol, 7 wt %) of the same compound?
A: opaque

Q: What about the “Visual appearance at last observation” value ([1]; 2-propanol, 0.1 wt %) of the same compound?
A: clear

Q: What about the “Visual appearance at last observation” value ([1]; 2-propanol, 1 wt %) of the same compound?
A: translucent

Q: And the “Visual appearance at last observation” value ([1]; 2-propanol, 4 wt %)?
A: opaque

Q: And the “Visual appearance at last observation” value ([1]; 2-propanol, 7 wt %)?
A: opaque

Q: And the “Visual appearance at last observation” value ([1]; acetone, 0.1, 1, 4 and 7 wt %)?
A: clear supernatant over sedimented

Q: What about the “Visual appearance at last observation” value ([1]; ethanol, 0.1 wt %) of the same compound?
A: clear

Q: And the “Visual appearance at last observation” value ([1]; ethanol, 1 wt %)?
A: clear

Q: And the “Visual appearance at last observation” value ([1]; ethanol, 4 wt %)?
A: opaque

Q: And the “Visual appearance at last observation” value ([1]; ethanol, 7 wt %)?
A: opaque

Q: What about the “Visual appearance at last observation” value ([1]; ethyl acetate, 0.1 wt %) of the same compound?
A: cloudy

Q: What about the “Visual appearance at last observation” value ([1]; ethyl acetate, 1 wt %) of the same compound?
A: opaque

Q: What about the “Visual appearance at last observation” value ([1]; ethyl acetate, 4 wt %) of the same compound?
A: opaque

Q: And the “Visual appearance at last observation” value ([1]; ethyl acetate, 7 wt %)?
A: opaque

Q: And the “Solubility (tentative interpretation)” value ([1]; in 1-pentanol)?
A: Solubility is between 0.1-1 wt %

Q: And the “Solubility (tentative interpretation)” value ([1]; in 2-propanol)?
A: Solubility is between 0.1-1 wt %

Q: What about the “Solubility (tentative interpretation)” value ([1]; in acetone) of the same compound?
A: Solubility is ≤0.1 wt %. Solvent

Q: And the “Solubility (tentative interpretation)” value ([1]; in ethanol)?
A: Solubility is between 1-4 wt %.

Q: And the “Solubility (tentative interpretation)” value ([1]; in ethyl acetate)?
A: Solubility is ≤0.1 wt %. Solvent

Q: What about the “Solubility (tentative interpretation)” value ([1]; in isobutyl acetate) of the same compound?
A: Solubility is ≤0.1 wt %. Solvent

Q: What about the “Solubility (tentative interpretation)” value ([1]; in methyl acetate) of the same compound?
A: Solubility is ≤0.1 wt %. Solvent

Q: And the “Visual appearance at last observation” value ([1]; isobutyl acetate, 0.1 wt %)?
A: cloudy

Q: And the “Visual appearance at last observation” value ([1]; isobutyl acetate, 1 wt %)?
A: opaque

Q: And the “Visual appearance at last observation” value ([1]; isobutyl acetate, 4 wt %)?
A: opaque

Q: What about the “Visual appearance at last observation” value ([1]; isobutyl acetate, 7 wt %) of the same compound?
A: opaque

Q: And the “Visual appearance at last observation” value ([1]; methyl acetate, 0.1 wt %)?
A: cloudy

Q: What about the “Visual appearance at last observation” value ([1]; methyl acetate, 1 wt %) of the same compound?
A: opaque

Q: What about the “Visual appearance at last observation” value ([1]; methyl acetate, 4 wt %) of the same compound?
A: opaque

Q: What about the “Visual appearance at last observation” value ([1]; methyl acetate, 7 wt %) of the same compound?
A: opaque

Q: What about the “XRPD identity of sedimented material” value ([2]; sediment from ethanol) of the same compound?
A: a solid crystalline material that was not midazolam hydrochloride

Q: And the “XRPD identity of sedimented material” value ([2]; sediment from ethyl acetate)?
A: appeared to be identical to midazolam hydrochloride
